Source: patent US20230073777A1, “CYCLIC-AMP RESPONSE ELEMENT BINDING PROTEIN (CBP) AND/OR ADENOVIRAL E1A BINDING PROTEIN OF 300 KDA (P300) DEGRADATION COMPOUNDS AND METHODS OF USE” (CULLGEN (SHANGHAI), INC., priority 2019, published 2023)
Like-named read-outs stand apart in the source and are kept apart here.

Assays:
[1] = test system: LNCaP cells; assay: LNCaP cell viability assay (CellTiter-Glo); assay type: cell-based; conditions: Homo sapiens, 72 h, LNCaP prostate cancer cell viability inhibition, 3 days
How it was run: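 Three-day treatment of LNCaP cells (5000 per well) across a 12-point, 3-fold dilution series starting at 10 μM. ATP luminescence (CellTiter-Glo) relative to untreated controls gave dose-response curves fitted nonlinearly for IC50.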

[2] = target: P300 (Homo sapiens, UniProt Q09472); assay: Immunoblotting of P300 protein levels in LNCaP or 22RV1 cells; assay type: cell-based; set-up: LNCaP or 22RV1 cells that express CBP/P300 proteins were treated with GNE-781 or the bivalent compounds; endogenous in cells; host or cells: LNCaP (clone FGC) or 22RV1 cells; conditions: read-out: Degradation (10 nM)
How it was run: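 P300/CBP levels quantified by chemiluminescent immunoblot band densitometry, normalized against tubulin or vinculin loading controls. Lysates came from LNCaP or 22RV1 cells exposed to compounds or DMSO vehicle for indicated times.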

[3] = percentage of inhibition of p300 at 10 nM (Table 3)
[4] = percentage of inhibition of p300 at 10 nM (Table 2)

Sequence of P300 (Q09472 whole entry): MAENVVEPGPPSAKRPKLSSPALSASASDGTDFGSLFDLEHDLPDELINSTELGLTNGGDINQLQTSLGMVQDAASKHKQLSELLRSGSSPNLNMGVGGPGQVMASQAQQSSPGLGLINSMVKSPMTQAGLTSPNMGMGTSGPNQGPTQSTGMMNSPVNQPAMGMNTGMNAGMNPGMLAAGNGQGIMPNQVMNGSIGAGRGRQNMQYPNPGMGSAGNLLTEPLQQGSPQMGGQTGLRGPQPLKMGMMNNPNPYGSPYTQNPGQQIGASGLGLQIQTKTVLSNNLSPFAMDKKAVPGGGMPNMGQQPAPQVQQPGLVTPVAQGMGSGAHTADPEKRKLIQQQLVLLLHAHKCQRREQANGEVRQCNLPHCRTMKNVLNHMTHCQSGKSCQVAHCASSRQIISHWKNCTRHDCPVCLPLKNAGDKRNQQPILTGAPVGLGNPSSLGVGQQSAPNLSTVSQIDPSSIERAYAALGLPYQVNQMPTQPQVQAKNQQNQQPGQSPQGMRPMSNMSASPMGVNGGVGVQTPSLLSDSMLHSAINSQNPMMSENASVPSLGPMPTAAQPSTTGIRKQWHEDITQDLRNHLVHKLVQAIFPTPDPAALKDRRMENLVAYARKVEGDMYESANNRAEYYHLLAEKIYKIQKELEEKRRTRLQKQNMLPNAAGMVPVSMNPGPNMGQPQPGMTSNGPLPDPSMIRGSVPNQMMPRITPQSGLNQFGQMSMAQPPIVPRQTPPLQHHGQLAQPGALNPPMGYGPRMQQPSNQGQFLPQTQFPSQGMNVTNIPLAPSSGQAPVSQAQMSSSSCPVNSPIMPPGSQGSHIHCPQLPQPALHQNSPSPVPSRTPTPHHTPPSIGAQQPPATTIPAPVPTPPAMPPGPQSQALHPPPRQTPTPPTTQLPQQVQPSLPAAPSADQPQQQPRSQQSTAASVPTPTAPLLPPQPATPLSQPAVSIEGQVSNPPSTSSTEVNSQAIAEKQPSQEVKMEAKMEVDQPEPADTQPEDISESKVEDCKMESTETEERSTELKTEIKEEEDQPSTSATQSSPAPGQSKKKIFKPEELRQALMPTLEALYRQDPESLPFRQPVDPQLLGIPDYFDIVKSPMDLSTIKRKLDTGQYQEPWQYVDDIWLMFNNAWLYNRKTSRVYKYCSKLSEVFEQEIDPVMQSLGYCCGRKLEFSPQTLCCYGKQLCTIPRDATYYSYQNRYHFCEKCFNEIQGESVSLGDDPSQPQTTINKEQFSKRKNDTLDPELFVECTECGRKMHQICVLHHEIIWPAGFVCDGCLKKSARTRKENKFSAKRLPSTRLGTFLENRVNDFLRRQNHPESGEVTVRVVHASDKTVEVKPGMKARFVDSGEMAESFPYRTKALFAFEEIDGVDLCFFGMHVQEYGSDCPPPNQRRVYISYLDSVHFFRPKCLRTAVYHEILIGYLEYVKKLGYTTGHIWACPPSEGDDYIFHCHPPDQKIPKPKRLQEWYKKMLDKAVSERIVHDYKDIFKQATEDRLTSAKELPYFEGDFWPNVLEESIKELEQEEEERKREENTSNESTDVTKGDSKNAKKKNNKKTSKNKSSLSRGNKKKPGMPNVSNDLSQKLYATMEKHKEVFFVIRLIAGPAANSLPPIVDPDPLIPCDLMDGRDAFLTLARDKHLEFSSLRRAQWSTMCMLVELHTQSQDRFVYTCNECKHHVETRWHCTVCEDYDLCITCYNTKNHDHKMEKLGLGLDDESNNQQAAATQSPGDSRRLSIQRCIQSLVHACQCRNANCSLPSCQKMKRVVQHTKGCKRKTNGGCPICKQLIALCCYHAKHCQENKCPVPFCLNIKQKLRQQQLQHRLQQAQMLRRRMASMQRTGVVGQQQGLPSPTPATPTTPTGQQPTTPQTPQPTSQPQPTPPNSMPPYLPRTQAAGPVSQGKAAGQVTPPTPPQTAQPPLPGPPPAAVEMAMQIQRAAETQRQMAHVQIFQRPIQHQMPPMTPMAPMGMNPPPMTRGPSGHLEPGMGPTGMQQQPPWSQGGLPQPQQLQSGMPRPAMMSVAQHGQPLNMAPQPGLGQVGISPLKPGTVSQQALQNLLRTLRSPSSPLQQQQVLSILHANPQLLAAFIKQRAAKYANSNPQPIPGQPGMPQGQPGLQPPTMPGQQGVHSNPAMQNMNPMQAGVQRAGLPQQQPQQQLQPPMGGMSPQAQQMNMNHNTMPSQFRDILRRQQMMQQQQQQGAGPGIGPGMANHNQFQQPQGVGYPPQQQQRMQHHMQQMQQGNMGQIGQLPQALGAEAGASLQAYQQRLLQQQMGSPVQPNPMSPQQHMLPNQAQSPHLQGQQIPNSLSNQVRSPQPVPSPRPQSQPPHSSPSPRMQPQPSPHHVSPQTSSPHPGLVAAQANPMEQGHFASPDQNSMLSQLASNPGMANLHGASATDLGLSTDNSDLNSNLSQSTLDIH

SMILES	IC50 ([1]; CellTiter-Glo (Table 3)) [nM]	inhibition at 0.01 µM [2, 3] [%]	IC50 ([1]; CellTiter-Glo (Table 2)) [nM]	inhibition at 0.01 µM [2, 4] [%]
CNC(=O)N1CCc2c(c(N3CCCc4cc(-c5cnn(C)c5)c(C(F)F)cc43)nn2C2CCN(C(=O)CCOCCOCCOCCOCCOCCNc3cccc4c3C(=O)N(C3CCC(=O)NC3=O)C4=O)CC2)C1 (stereo not shown) [P-055, 3-(7-(Difluoromethyl)-6-(1-methyl-1H-pyrazol-4-yl)-3,4-dihydroquinolin-1(2H)-yl)-1-(1-(1-((2-(2,6-dioxopiperidin-3-yl)-1,3-dioxoisoindolin-4-yl)amino)-3,6,9,12,15-pentaoxaoctadecan-18-oyl)piperidin-4-yl)-N-methyl-1,4,6,7-tetrahydro-5H-pyrazolo[4,3-c]pyridine-5-carboxamide]	161	< 20		
CNC(=O)N1CCc2c(c(N3CCCc4cc(-c5cnn(C)c5)c(C(F)F)cc43)nn2C2CCN(C(=O)CCCCNc3ccc4c(c3)n(C)c(=O)n4C3CCC(=O)NC3=O)CC2)C1 (stereo not shown) [P-125, 3-(7-(Difluoromethyl)-6-(1-methyl-1H-pyrazol-4-yl)-3,4-dihydroquinolin-1(2H)-yl)-1-(1-(5-((1-(2,6-dioxopiperidin-3-yl)-3-methyl-2-oxo-2,3-dihydro-1H-benzo[d]imidazol-5-yl)amino)pentanoyl)piperidin-4-yl)-N-methyl-1,4,6,7-tetrahydro-5H-pyrazolo[4,3-c]pyridine-5-carboxamide]	42.1	> 80		
CNC(=O)N1CCc2c(c(N3CCCc4cc(-c5cnn(C)c5)c(C(F)F)cc43)nn2C2CCN(C(=O)CCCCCNc3cccc4c3CN(C3CCC(=O)NC3=O)C4=O)CC2)C1 (stereo not shown) [P-095, 3-(7-(Difluoromethyl)-6-(1-methyl-1H-pyrazol-4-yl)-3,4-dihydroquinolin-1(2H)-yl)-1-(1-(6-((2-(2,6-dioxopiperidin-3-yl)-1-oxoisoindolin-4-yl)amino)hexanoyl)piperidin-4-yl)-N-methyl-1,4,6,7-tetrahydro-5H-pyrazolo[4,3-c]pyridine-5-carboxamide]	67.7	20 to 50		
CC(=O)N1CCc2c(c(N3CCCc4cc(-c5cnn(C)c5)c(C(F)F)cc43)nn2C2CCN(C(=O)CCCCC#Cc3cccc4c3CN(C3CCC(=O)NC3=O)C4=O)CC2)C1 (stereo not shown) [P-122, 3-(4-(7-(4-(5-Acetyl-3-(7-(difluoromethyl)-6-(1-methyl-1H-pyrazol-4-yl)-3,4-dihydroquinolin-1(2H)-yl)-4,5,6,7-tetrahydro-1H-pyrazolo[4,3-c]pyridin-1-yl)piperidin-1-yl)-7-oxohept-1-yn-1-yl)-1-oxoisoindolin-2-yl)piperidine-2,6-dione]	84.4	> 80		
CNC(=O)N1CCc2c(c(N3CCCc4cc(-c5cnn(C)c5)c(C(F)F)cc43)nn2C2CCN(C(=O)COCCOCCOCCOCCOCC(=O)N[C@H](C(=O)N3C[C@H](O)C[C@H]3C(=O)NCc3ccc(-c4scnc4C)cc3)C(C)(C)C)CC2)C1 [P-071, 3-(7-(Difluoromethyl)-6-(1-methyl-1H-pyrazol-4-yl)-3,4-dihydroquinolin-1(2H)-yl)-1-(1-((S)-19-((2S,4R)-4-hydroxy-2-((4-(4-methylthiazol-5-yl)benzyl)carbamoyl)pyrrolidine-1-carbonyl)-20,20-dimethyl-17-oxo-3,6,9,12,15-pentaoxa-18-azahenicosanoyl)piperidin-4-yl)-N-methyl-1,4,6,7-tetrahydro-5H-pyrazolo[4,3-c]pyridine-5-carboxamide]	107	20 to 50		
CNC(=O)N1CCc2c(c(N3CCCc4cc(-c5cnn(C)c5)c(C(F)F)cc43)nn2C2CCN(C(=O)CCCCCCNc3ccc4c(c3)C(=O)N(C3CCC(=O)NC3=O)C4=O)CC2)C1 (stereo not shown) [P-006, 3-(7-(difluoromethyl)-6-(1-methyl-1H-pyrazol-4-yl)-3,4-dihydroquinolin-1(2H)-yl)-1-(1-(7-((2-(2,6-dioxopiperidin-3-yl)-1,3-dioxoisoindolin-5-yl)amino)heptanoyl)piperidin-4-yl)-N-methyl-1,4,6,7-tetrahydro-5H-pyrazolo[4,3-c]pyridine-5-carboxamide]			3.2	> 80
CNC(=O)N1CCc2c(c(N3CCCc4cc(-c5cnn(CC(=O)NCCOCCOCCOCCNc6cccc7c6C(=O)N(C6CCC(=O)NC6=O)C7=O)c5)c(C(F)F)cc43)nn2C2CCOCC2)C1 (stereo not shown) [P-023, 3-(7-(Difluoromethyl)-6-(1-(14-((2-(2,6-dioxopiperidin-3-yl)-1,3-dioxoisoindolin-4-yl)amino)-2-oxo-6,9,12-trioxa-3-azatetradecyl)-1H-pyrazol-4-yl)-3,4-dihydroquinolin-1(2H)-yl)-N-methyl-1-(tetrahydro-2H-pyran-4-yl)-1,4,6,7-tetrahydro-5H-pyrazolo[4,3-c]pyridine-5-carboxamide]			357	< 20
CNC(=O)N1CCc2c(c(N3CCCc4cc(-c5cnn(C)c5)c(C(F)F)cc43)nn2C2CCN(C(=O)CCOCCOCCOCCOCCNc3ccc4c(c3)C(=O)N(C3CCC(=O)NC3=O)C4=O)CC2)C1 (stereo not shown) [P-011, 3-(7-(Difluoromethyl)-6-(1-methyl-1H-pyrazol-4-yl)-3,4-dihydroquinolin-1(2H)-yl)-1-(1-(1-((2-(2,6-dioxopiperidin-3-yl)-1,3-dioxoisoindolin-5-yl)amino)-3,6,9,12-tetraoxapentadecan-15-oyl)piperidin-4-yl)-N-methyl-1,4,6,7-tetrahydro-5H-pyrazolo[4,3-c]pyridine-5-carboxamide]			163	20 to 50

Next, values leading:

IC50 ([1]; CellTiter-Glo (Table 3)) [nM]	inhibition at 0.01 µM [2, 3] [%]	IC50 ([1]; CellTiter-Glo (Table 2)) [nM]	inhibition at 0.01 µM [2, 4] [%]	SMILES
12.6	20 to 50			CNC(=O)N1CCc2c(c(N3CCCc4cc(-c5cnn(C)c5)c(C(F)F)cc43)nn2C2CCN(C(=O)CCCCCCc3cccc4c3C(=O)N(C3CCC(=O)NC3=O)C4)CC2)C1 (stereo not shown) [P-087, 3-(7-(Difluoromethyl)-6-(1-methyl-1H-pyrazol-4-yl)-3,4-dihydroquinolin-1(2H)-yl)-1-(1-(7-(2-(2,6-dioxopiperidin-3-yl)-3-oxoisoindolin-4-yl)heptanoyl)piperidin-4-yl)-N-methyl-1,4,6,7-tetrahydro-5H-pyrazolo[4,3-c]pyridine-5-carboxamide]
1.4	> 80			CC(=O)N1CCc2c(c(N3CCCc4cc(-c5cnn(C)c5)c(C(F)F)cc43)nn2C2CCN(C(=O)CN3CCC(CCCc4cccc5c4C(=O)N(C4CCC(=O)NC4=O)C5=O)CC3)CC2)C1 (stereo not shown) [P-147, 4-(3-(1-(2-(4-(5-acetyl-3-(7-(difluoromethyl)-6-(1-methyl-1H-pyrazol-4-yl)-3,4-dihydroquinolin-1(2H)-yl)-4,5,6,7-tetrahydro-1H-pyrazolo[4,3-c]pyridin-1-yl)piperidin-1-yl)-2-oxoethyl)piperidin-4-yl)propyl)-2-(2,6-dioxopiperidin-3-yl)isoindoline-1,3-dione]
28.9	20 to 50			CNC(=O)N1CCc2c(c(N3CCCc4cc(-c5cnn(C)c5)c(C(F)F)cc43)nn2C2CCN(C(=O)CCCCCCCCCC(=O)N[C@H](C(=O)N3C[C@H](O)C[C@H]3C(=O)NCc3ccc(-c4scnc4C)cc3)C(C)(C)C)CC2)C1 [P-063, 3-(7-(Difluoromethyl)-6-(1-methyl-1H-pyrazol-4-yl)-3,4-dihydroquinolin-1(2H)-yl)-1-(1-(11-(((S)-1-((2S,4R)-4-hydroxy-2-((4-(4-methylthiazol-5-yl)benzyl)carbamoyl)pyrrolidin-1-yl)-3,3-dimethyl-1-oxobutan-2-yl)amino)-11-oxoundecanoyl)piperidin-4-yl)-N-methyl-1,4,6,7-tetrahydro-5H-pyrazolo[4,3-c]pyridine-5-carboxamide]
